Measured values: ChEMBL document CHEMBL3885861, “Open TG-GATES”

Species: Rattus norvegicus
Experiment: Open TG-GATES - Regimen: Single
Assay type: toxicity, organism-based, Sprague-Dawley
Design: regimen Single, gender Male, age 6 weeks
Details: in vivo, po, 0 mg/kg, route gavage, dose level Control; for APTT / Bas / Eos / Fbg / Hb / Ht / Lym / MCH / MCHC / MCV / Mono / Neu / PT / Plat / RBC / Ret / WBC: tissue Blood; for KIDNEY_L / KIDNEY_R / KIDNEY_TOTAL: tissue Kidney; for LIVER: tissue Liver; for A/G / ALP / ALT / AST / BUN / CRE / Ca / Cl / DBIL / GLC / IP / K / LDH / Na / PL / RALB / TBIL / TC / TG / TP / gamma-GTP: tissue Plasma

CCOc1ccc(NC(=O)CC(C)O)cc1 (stereo unspecified) [BUCETIN]
TERMINAL_BW (3 h): 208.8 g
APTT (3 h): 14.7 s
Bas (3 h): 0%
Eos (3 h): 1%
Fbg (3 h): 294.8 mg/dL
Hb (3 h): 12.7 g/dL
Ht (3 h): 38.3%
Lym (3 h): 78.2%
MCH (3 h): 21.4 pg
MCHC (3 h): 33.2%
MCV (3 h): 64.5 fL
Mono (3 h): 3.2%
Neu (3 h): 17.2%
PT (3 h): 13.6 s
Plat (3 h): 115.4 x10_4/uL
RBC (3 h): 594.2 x10_4/ul
Ret (3 h): 8.7%
WBC (3 h): 84.1 x10_2/uL
KIDNEY_L (3 h): 0.9 g
KIDNEY_R (3 h): 0.9 g
KIDNEY_TOTAL (3 h): 1.8 g
LIVER (3 h): 9.1 g
A/G (3 h): 0.9
ALP (3 h): 1389.8 IU/L
ALT (3 h): 35.8 IU/L
AST (3 h): 75 IU/L
BUN (3 h): 9.8 mg/dL
CRE (3 h): 0.2 mg/dL
Ca (3 h): 10.6 mg/dL
Cl (3 h): 105.2 meq/L
DBIL (3 h): 0.02 mg/dL
GLC (3 h): 178 mg/dL
IP (3 h): 8.6 mg/dL
K (3 h): 4.3 meq/L
LDH (3 h): 77.2 IU/L
Na (3 h): 141.8 meq/L
PL (3 h): 143.4 mg/dL
RALB (3 h): 2.5 g/dL
TBIL (3 h): 0.06 mg/dL
TC (3 h): 81.6 mg/dL
TG (3 h): 50.4 mg/dL
TP (3 h): 5.4 g/dL
gamma-GTP (3 h): 2 IU/L
TERMINAL_BW (6 h): 211.1 g
APTT (6 h): 16.7 s
Bas (6 h): 0.2%
Eos (6 h): 1%
Fbg (6 h): 303.8 mg/dL
Hb (6 h): 13.3 g/dL
Ht (6 h): 40%
Lym (6 h): 83.6%
MCH (6 h): 21.4 pg
MCHC (6 h): 33.3%
MCV (6 h): 64.4 fL
Mono (6 h): 1.8%
Neu (6 h): 13%
PT (6 h): 13.4 s
Plat (6 h): 117.3 x10_4/uL
RBC (6 h): 619.6 x10_4/ul
Ret (6 h): 8.6%
WBC (6 h): 97.2 x10_2/uL
KIDNEY_L (6 h): 0.9 g
KIDNEY_R (6 h): 0.9 g
KIDNEY_TOTAL (6 h): 1.9 g
LIVER (6 h): 8.9 g
A/G (6 h): 0.9
ALP (6 h): 1305.2 IU/L
ALT (6 h): 32.4 IU/L
AST (6 h): 66.4 IU/L
BUN (6 h): 8.8 mg/dL
CRE (6 h): 0.2 mg/dL
Ca (6 h): 10.8 mg/dL
Cl (6 h): 105.6 meq/L
DBIL (6 h): 0.016 mg/dL
GLC (6 h): 178.2 mg/dL
IP (6 h): 9.2 mg/dL
K (6 h): 4.3 meq/L
LDH (6 h): 70.4 IU/L
Na (6 h): 142.8 meq/L
PL (6 h): 143.2 mg/dL
RALB (6 h): 2.5 g/dL
TBIL (6 h): 0.058 mg/dL
TC (6 h): 77.6 mg/dL
TG (6 h): 62.8 mg/dL
TP (6 h): 5.4 g/dL
gamma-GTP (6 h): 1.4 IU/L
